Holding throughout (type): cell-based
Assay [1] has as its target T1, human PAC1 receptor (Homo sapiens, UniProt P41586).
T1 construct: expressed in transfected cells; host or cells: CHO cells (G418 selection)
T1 sequence (P41586 21-468): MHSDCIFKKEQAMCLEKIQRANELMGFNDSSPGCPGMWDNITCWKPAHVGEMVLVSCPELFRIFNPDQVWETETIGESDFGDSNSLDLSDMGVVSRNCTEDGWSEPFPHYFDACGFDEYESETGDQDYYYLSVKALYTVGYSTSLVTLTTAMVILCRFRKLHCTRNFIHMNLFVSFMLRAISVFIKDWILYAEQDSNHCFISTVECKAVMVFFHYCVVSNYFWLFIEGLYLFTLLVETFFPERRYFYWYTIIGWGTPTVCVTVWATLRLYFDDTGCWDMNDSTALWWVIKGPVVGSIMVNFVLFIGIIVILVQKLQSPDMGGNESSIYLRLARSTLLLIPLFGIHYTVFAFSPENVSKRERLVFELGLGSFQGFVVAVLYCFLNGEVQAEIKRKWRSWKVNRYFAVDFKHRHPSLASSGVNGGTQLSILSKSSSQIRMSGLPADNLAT
Put plainly: cAMP stimulation in CHO cells expressing PAC1. As to conditions: for Emax: CHO. In a few lines:
(§1)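 Serum-starved CHO cells expressing human receptors were pre-treated 20 min with 500 μM IBMX, then exposed to agonist concentration curves for 10 min in 500 μM IBMX. cAMP quantified by competition with bovine PKA and ^3H-cAMP (1 h, room temperature), scintillation read.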

Assay [2] deals with T2, human VPAC1 receptor (Homo sapiens, UniProt P32241).
T2 construct: expressed in transfected cells; host or cells: CHO cells (G418 selection)
T2 sequence (P32241 31-457): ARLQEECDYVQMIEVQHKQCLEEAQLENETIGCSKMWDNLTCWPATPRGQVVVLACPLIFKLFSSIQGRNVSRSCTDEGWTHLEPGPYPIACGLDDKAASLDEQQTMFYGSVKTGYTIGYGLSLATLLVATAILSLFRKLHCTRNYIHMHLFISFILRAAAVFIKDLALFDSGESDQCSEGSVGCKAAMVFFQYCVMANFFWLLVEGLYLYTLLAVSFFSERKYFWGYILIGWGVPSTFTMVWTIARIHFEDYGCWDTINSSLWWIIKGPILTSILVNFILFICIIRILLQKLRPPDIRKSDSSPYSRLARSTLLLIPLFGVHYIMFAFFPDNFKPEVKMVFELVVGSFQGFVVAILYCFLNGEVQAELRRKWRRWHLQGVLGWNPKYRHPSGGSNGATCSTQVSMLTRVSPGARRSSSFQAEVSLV
Put plainly: cAMP stimulation in CHO cells expressing VPAC1. As to conditions: for Emax: CHO, read-out: VPAC1 Emax; for Receptor selectivity ratio VPAC1/PAC1: ratio of cAMP EC50 values; for EC50: read-out: VPAC1 EC50.

The target of assay [3] is T3, human VPAC2 receptor (Homo sapiens, UniProt P41587).
T3 construct: expressed in transfected cells; host or cells: CHO cells (G418 selection)
T3 sequence (P41587 24-438): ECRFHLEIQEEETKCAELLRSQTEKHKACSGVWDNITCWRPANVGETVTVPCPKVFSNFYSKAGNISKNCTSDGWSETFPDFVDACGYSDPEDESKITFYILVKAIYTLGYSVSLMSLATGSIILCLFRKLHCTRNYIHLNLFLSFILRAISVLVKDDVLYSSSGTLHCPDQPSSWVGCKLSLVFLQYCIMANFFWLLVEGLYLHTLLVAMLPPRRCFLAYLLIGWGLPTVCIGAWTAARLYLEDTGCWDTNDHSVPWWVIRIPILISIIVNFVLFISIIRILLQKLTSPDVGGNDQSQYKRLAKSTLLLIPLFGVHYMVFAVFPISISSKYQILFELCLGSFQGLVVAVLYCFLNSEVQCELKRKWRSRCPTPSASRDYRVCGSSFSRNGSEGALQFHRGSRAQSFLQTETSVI
Put plainly: cAMP stimulation in CHO cells expressing VPAC2. As to conditions: for Emax: CHO; for Receptor selectivity ratio VPAC2/PAC1 / Receptor selectivity ratio VPAC2/VPAC1: ratio of cAMP EC50 values. In a few lines: as §1

Where only a bound is given, the exact number is not on record here.

`CCC[C@H](NC(=O)[C@H](CCC(N)=O)NC(=O)[C@H](CCCCN)NC(=O)[C@H](CCCNC(=N)N)NC(=O)[C@H](Cc1ccc(O)cc1)NC(=O)[C@H](CCCNC(=N)N)NC(=O)[C@H](CO)NC(=O)[C@H](Cc1ccc(O)cc1)NC(=O)[C@H](CO)NC(=O)[C@H](CC(=O)O)NC(=O)[C@@H](NC(=O)[C@H](Cc1ccccc1)NC(=O)[C@@H](NC(=O)C(C)(C)NC(=O)[C@H](CC(=O)O)NC(=O)[C@@H](CO)NC(=O)[C@@H](N)Cc1c[nH]cn1)[C@@H](C)CC)[C@@H](C)O)C(=O)N[C@@H](C)C(=O)N[C@H](C(=O)N[C@@H](CCCCN)C(=O)N[C@@H](CCCCN)C(=O)N[C@@H](Cc1ccc(O)cc1)C(=O)N[C@@H](CC(C)C)C(=O)N[C@@H](C)C(=O)N[C@@H](C)C(=O)N[C@H](C(=O)N[C@@H](CC(C)C)C(=O)N[C@@H](CO[C@@H]1O[C@H](CO)[C@@H](O)[C@H](O)[C@H]1O)C(N)=O)C(C)C)C(C)C` [CRA3011]: in assay [1], the response was half-maximal at 784 nM (EC50) and the Emax (in general, the maximal effect, on the per cent scale that the assay sets) is 68%. For the same molecule, in assay [2], the maximal response (Emax) turned out to be 91%; the “Receptor selectivity ratio VPAC1/PAC1” value is recorded as 0.04; the concentration for a half-maximal effect (EC50) (in general, the concentration needed to bring the measured effect to its halfway point) amounted to 34.2 nM. Also, the “Selectivity for VPAC1 over PAC1” value in assay [2] (from cAMP EC50 values) was about 23 fold. Besides, in assay [3], the EC50 was 223 nM, the Emax is 99%, the “Receptor selectivity ratio VPAC2/PAC1” value came out at 0.28 and the “Receptor selectivity ratio VPAC2/VPAC1” value was determined as 6.52.
`CCC[C@H](NC(=O)[C@H](CCC(N)=O)NC(=O)[C@H](CCCCN)NC(=O)[C@H](CCCNC(=N)N)NC(=O)[C@H](Cc1ccc(O)cc1)NC(=O)[C@H](CCCNC(=N)N)NC(=O)[C@H](CO)NC(=O)[C@H](Cc1ccc(O)cc1)NC(=O)[C@H](CO)NC(=O)[C@H](CC(=O)O)NC(=O)[C@@H](NC(=O)[C@H](Cc1ccccc1)NC(=O)[C@@H](NC(=O)CNC(=O)[C@H](CC(=O)O)NC(=O)[C@@H](CO)NC(=O)[C@@H](N)Cc1c[nH]cn1)[C@@H](C)CC)[C@@H](C)O)C(=O)N[C@@H](C)C(=O)N[C@H](C(=O)N[C@@H](CCCCN)C(=O)N[C@@H](CCCCN)C(=O)N[C@@H](Cc1ccc(O)cc1)C(=O)N[C@@H](CC(C)C)C(=O)N[C@@H](C)C(=O)N[C@@H](C)C(=O)N[C@H](C(=O)N[C@@H](CC(C)C)C(=O)N[C@@H](CO[C@@H]1O[C@H](CO)[C@@H](O[C@@H]2O[C@H](CO)[C@H](O)[C@H](O)[C@H]2O)[C@H](O)[C@H]1O)C(N)=O)C(C)C)C(C)C` [CRA 3000-Lac]: the maximal response (Emax) was 92% in assay [1], 96% in assay [2] and 116% in assay [3].
In assay [1], `CCCC[C@@H](NC(=O)CNC(=O)[C@H](CC(=O)O)NC(=O)[C@@H](CO)NC(=O)[C@@H](N)Cc1c[nH]cn1)C(=O)N[C@@H](Cc1ccccc1)C(=O)N[C@H](C(=O)N[C@@H](CC(=O)O)C(=O)N[C@@H](CO)C(=O)N[C@@H](Cc1ccc(O)cc1)C(=O)N[C@@H](CO)C(=O)N[C@@H](CCCNC(=N)N)C(=O)N[C@@H](Cc1ccc(O)cc1)C(=O)N[C@@H](CCCNC(=N)N)C(=O)N[C@@H](CCCCN)C(=O)N[C@@H](CCC(N)=O)C(=O)N[C@@H](CCC)C(=O)N[C@@H](C)C(=O)N[C@H](C(=O)N[C@@H](CCCCN)C(=O)N[C@@H](CCCCN)C(=O)N[C@@H](Cc1ccc(O)cc1)C(=O)N[C@@H](CC(C)C)C(=O)N[C@@H](C)C(=O)N[C@@H](C)C(=O)N[C@H](C(=O)N[C@@H](CC(C)C)C(=O)N[C@@H](CO[C@@H]1O[C@H](CO)[C@@H](O)[C@H](O)[C@H]1O)C(N)=O)C(C)C)C(C)C)[C@@H](C)O` [CRA3019] came in with a half-maximal effective concentration (EC50) of 847 nM and an Emax of 65%. Also, in assay [2], the maximal effect (Emax) turned out to be 72%, the “Receptor selectivity ratio VPAC1/PAC1” value turned out to be 0.77 and the EC50 amounted to 649 nM. In assay [3], this molecule yielded an EC50 of over 2500 nM and an Emax of 74%.
In the case of `CCCC[C@H](NC(=O)CN(C)C(=O)[C@H](CC(=O)O)NC(=O)[C@@H](CO)NC(=O)[C@@H](N)Cc1c[nH]cn1)C(=O)N[C@@H](Cc1ccccc1)C(=O)N[C@H](C(=O)N[C@@H](CC(=O)O)C(=O)N[C@@H](CO)C(=O)N[C@@H](Cc1ccc(O)cc1)C(=O)N[C@@H](CO)C(=O)N[C@@H](CCCNC(=N)N)C(=O)N[C@@H](Cc1ccc(O)cc1)C(=O)N[C@@H](CCCNC(=N)N)C(=O)N[C@@H](CCCCN)C(=O)N[C@@H](CCC(N)=O)C(=O)N[C@@H](CCC)C(=O)N[C@@H](C)C(=O)N[C@H](C(=O)N[C@@H](CCCCN)C(=O)N[C@@H](CCCCN)C(=O)N[C@@H](Cc1ccc(O)cc1)C(=O)N[C@@H](CC(C)C)C(=O)N[C@@H](C)C(=O)N[C@@H](C)C(=O)N[C@H](C(=O)N[C@@H](CC(C)C)C(=O)N[C@@H](CO[C@@H]1O[C@H](CO)[C@@H](O)[C@H](O)[C@H]1O)C(N)=O)C(C)C)C(C)C)[C@@H](C)O` [CRA3018], the figures for the Emax in assay [1], in assay [2] and in assay [3] were 85%, 104% and 112%, respectively.
On to `CC[C@H](C)[C@H](NC(=O)CNC(=O)[C@H](CC(=O)O)NC(=O)[C@H](CO)NC(=O)[C@@H](N)Cc1c[nH]cn1)C(=O)N[C@@H](Cc1ccccc1)C(=O)N[C@H](C(=O)N[C@@H](CC(=O)O)C(=O)N[C@@H](CO)C(=O)N[C@@H](Cc1ccc(O)cc1)C(=O)N[C@@H](CO)C(=O)N[C@@H](CCCNC(=N)N)C(=O)N[C@@H](Cc1ccc(O)cc1)C(=O)N[C@@H](CCCNC(=N)N)C(=O)N[C@@H](CCCCN)C(=O)N[C@@H](CCC(N)=O)C(=O)N[C@@H](CC(C)C)C(=O)N[C@@H](C)C(=O)N[C@H](C(=O)N[C@@H](CCCCN)C(=O)N[C@@H](CCCCN)C(=O)N[C@@H](Cc1ccc(O)cc1)C(=O)N[C@@H](CC(C)C)C(=O)N[C@@H](C)C(=O)N[C@@H](C)C(=O)N[C@H](C(=O)N[C@@H](CC(C)C)C(=O)N[C@@H](CO[C@@H]1O[C@H](CO)[C@@H](O)[C@H](O)[C@H]1O)C(=O)N[C@@H](CO[C@@H]1O[C@H](CO)[C@@H](O)[C@H](O)[C@H]1O)C(N)=O)C(C)C)C(C)C)[C@@H](C)O` [Compound 2LS140], for which, in assay [1], the concentration for a half-maximal effect (EC50) stood at 2.23 nM and the maximal effect (Emax) was 102%. In assay [2], the Emax came out at 108%, the “Receptor selectivity ratio VPAC1/PAC1” value was determined as 1.37 and the EC50 was determined as 3.06 nM. In assay [3], the response was half-maximal at 156 nM (EC50), the Emax is 106%, the “Receptor selectivity ratio VPAC2/PAC1” value was found to be 69.96 and the “Receptor selectivity ratio VPAC2/VPAC1” value came out at 50.98.

These data come from paper PMC8887546, “Design and Synthesis of Brain Penetrant Glycopeptide Analogues of PACAP With Neuroprotective Potential for Traumatic Brain Injury and Parkinsonism” (Frontiers in drug discovery, 2022).
